Experimental findings from ChEMBL document CHEMBL5365467 (J Med Chem, 2023) are described below.

The source made the active and inactive calls. No cut-off for these calls is given here.

Data set [1] has as its target Protein cereblon/Androgen receptor (Homo sapiens, UniProt P10275+Q96SW2, T878A). As to the kind of experiment: PROTAC activity at AR T878A mutant/CRBN in human LNCaP cells assessed as induction of androgen receptor degradation measured at 24 hrs by Western blot analysis. The data set is classed as cell-based. In general terms: In western blotting, separated proteins are transferred to a membrane and probed.

A short description of data set [2]: Cmax in Sprague-Dawley rat at 3 mg/kg, po measured upto 24 hrs by LC-MS/MS analysis. Format: ADME, organism-based. The arrangement: dose 3 mg/kg, time < 24 hrs, route po. The conditions noted are these: in vivo.
Data set [3] is described as follows: Oral bioavailability in Sprague-Dawley rat at 3 mg/kg measured upto 24 hrs by LC-MS/MS analysis. The data set is classed as ADME, organism-based. The conditions noted are these: in vivo.
Data set [4] can be described thus: Clearance in Sprague-Dawley rat at 1 mg/kg, iv measured upto 24 hrs by LC-MS/MS analysis. Format: ADME, organism-based. As to conditions: in vivo.
Data set [5] is described as follows: AUC (0 to t) in Sprague-Dawley rat at 1 mg/kg, iv measured upto 24 hrs by LC-MS/MS analysis. The arrangement: dose 1 mg/kg, time < 24 hrs, route iv. Format: ADME, organism-based. The conditions noted are these: in vivo.
In data set [6] the test system is VCaP. As to the kind of experiment: Growth inhibition in human VCaP cells.
The target in data set [7] is Protein cereblon/Androgen receptor (Homo sapiens, UniProt P10275+Q96SW2). As to the kind of experiment: PROTAC activity at AR/CRBN in AR-positive human VCaP cells assessed as induction of androgen receptor degradation measured at 24 hrs. The data set is classed as cell-based.
Data set [8] is described as follows: AUC (0 to t) in Sprague-Dawley rat at 3 mg/kg, po measured upto 24 hrs by LC-MS/MS analysis. The conditions noted are these: in vivo. The data set is classed as ADME, organism-based. Details: dose 3 mg/kg, time < 24 hrs, route po.
A short description of data set [9]: Volume of distribution at steady state in Sprague-Dawley rat at 1 mg/kg, iv measured upto 24 hrs by LC-MS/MS analysis. The data set is classed as ADME, organism-based. As to conditions: in vivo, read-out: Vdss.
Data set [10] in a line: Half life in Sprague-Dawley rat at 5 mg/kg, po measured upto 24 hrs by LC-MS/MS analysis. The conditions noted are these: in vivo.
Data set [11] is described as follows: Half life in Sprague-Dawley rat at 1 mg/kg, iv measured upto 24 hrs by LC-MS/MS analysis. The data set is classed as ADME, organism-based. The conditions noted are these: in vivo.
The nature of data set [12]: Half life in Sprague-Dawley rat at 3 mg/kg, po measured upto 24 hrs by LC-MS/MS analysis. The conditions noted are these: in vivo. The data set is classed as ADME, organism-based.
A further data set addresses T1, Androgen receptor (Homo sapiens, UniProt P10275).
T1 sequence (P10275 whole entry): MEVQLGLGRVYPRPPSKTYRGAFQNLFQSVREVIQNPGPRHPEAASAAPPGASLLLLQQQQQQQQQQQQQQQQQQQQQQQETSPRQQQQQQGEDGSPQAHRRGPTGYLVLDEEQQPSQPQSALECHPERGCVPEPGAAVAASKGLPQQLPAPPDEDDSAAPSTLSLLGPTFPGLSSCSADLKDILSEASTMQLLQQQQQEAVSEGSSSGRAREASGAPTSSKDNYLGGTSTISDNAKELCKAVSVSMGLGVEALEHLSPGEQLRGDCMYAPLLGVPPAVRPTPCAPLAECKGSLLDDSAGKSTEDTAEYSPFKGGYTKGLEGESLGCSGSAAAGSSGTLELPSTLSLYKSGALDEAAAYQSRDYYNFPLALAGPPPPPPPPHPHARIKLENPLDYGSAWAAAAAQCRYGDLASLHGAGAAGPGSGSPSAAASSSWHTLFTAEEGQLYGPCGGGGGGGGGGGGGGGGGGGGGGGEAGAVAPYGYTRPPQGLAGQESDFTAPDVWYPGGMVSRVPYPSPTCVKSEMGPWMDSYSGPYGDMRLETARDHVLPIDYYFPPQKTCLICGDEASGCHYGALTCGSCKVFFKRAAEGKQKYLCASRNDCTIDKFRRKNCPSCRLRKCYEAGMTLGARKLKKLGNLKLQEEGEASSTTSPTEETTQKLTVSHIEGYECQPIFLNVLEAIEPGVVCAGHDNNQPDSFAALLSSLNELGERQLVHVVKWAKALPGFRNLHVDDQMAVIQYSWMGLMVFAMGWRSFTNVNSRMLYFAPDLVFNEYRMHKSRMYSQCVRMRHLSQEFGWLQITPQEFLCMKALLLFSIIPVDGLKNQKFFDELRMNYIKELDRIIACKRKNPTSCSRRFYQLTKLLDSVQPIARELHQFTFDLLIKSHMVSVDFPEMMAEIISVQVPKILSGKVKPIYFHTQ

A further data set has as its system LNCaP. Briefly: Growth inhibition in human LNCaP cells assessed as reduction in cell viability.
Data set [13] has as its system VCaP. As to the kind of experiment: Antitumor activity against human VCaP cells xenografted in CB17-SCID mouse assessed as tumor growth inhibition at 10 mg/kg, po administered for 21 days. Format: functional. The conditions noted are these: 504 h, time 21 day, read-out: TGI. (In general: Xenograft models place foreign cells or tissue in a host animal.)
The subject of data set [14] is VCaP. As to the kind of experiment: Downregulation of HAUS8 protein expression in human VCaP cells at 10 uM measured for 24 hrs by proteomics analysis. Format: functional, cell-based.
Data set [15] relates to VCaP. As to the kind of experiment: Downregulation of PCLAF protein expression in human VCaP cells at 10 uM measured for 24 hrs by proteomics analysis. Format: functional, cell-based.
Data set [16] has as its system VCaP. Briefly: Downregulation of PLOD2 protein expression in human VCaP cells at 10 uM measured for 24 hrs by proteomics analysis. The data set is classed as functional, cell-based.

Sequence of Protein cereblon/Androgen receptor (Homo sapiens, UniProt P10275+Q96SW2) (Q96SW2 whole entry, one chain of several): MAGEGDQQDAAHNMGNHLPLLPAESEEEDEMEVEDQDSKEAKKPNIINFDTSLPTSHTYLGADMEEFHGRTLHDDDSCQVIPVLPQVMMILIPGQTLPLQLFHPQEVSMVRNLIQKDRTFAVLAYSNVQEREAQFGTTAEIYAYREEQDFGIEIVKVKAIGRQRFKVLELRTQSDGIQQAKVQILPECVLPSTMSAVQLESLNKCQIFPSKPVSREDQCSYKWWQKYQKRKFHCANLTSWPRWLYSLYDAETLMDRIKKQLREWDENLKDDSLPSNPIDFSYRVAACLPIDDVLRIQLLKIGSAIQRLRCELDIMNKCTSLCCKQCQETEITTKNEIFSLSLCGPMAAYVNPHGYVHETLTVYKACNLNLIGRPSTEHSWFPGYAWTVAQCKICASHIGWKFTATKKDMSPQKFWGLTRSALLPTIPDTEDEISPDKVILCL

Take `C[C@H]1CC2(CCN(c3ccc(C(=O)N4CCC(CN5Cc6cc7c(cc6C5)C(=O)N(C5CCC(=O)NC5=O)C7=O)CC4)nn3)CC2)CN1c1ccc(C#N)c(Cl)c1` (stereo not given in full): the DC50 (usually the concentration giving 50% degradation) in data set [1] stood at 0.5 nM; in data set [7] (read-out: DC50) it was 2.7 nM. Further, the Cmax (commonly the highest concentration seen after dosing) in data set [2] was determined as 247 ng/mL. Also, in [3], the bioavailability (commonly the share of a dose that reaches the circulation, judged against a reference dose that is usually intravenous) was found to be 36%. Besides, the clearance (as a rule, a measure of how efficiently the substance is removed, as volume per time) in [4] was 32.3 mL/min/kg. Besides, the AUC(0-t) – broadly, the area under the concentration-time curve up to a stated or last time point – at 24 h in [5] worked out at 1010 ng·h/mL; in data set [8], 1100 ng·h/mL. Besides, in the data set with VCaP [6], the IC50 (in general, the midpoint of a concentration-inhibition curve) was 20 nM. Besides, the Vd in data set [9] was 2.2 L/kg. Besides, the half-life (commonly the time in which the quantity being followed falls by half) at 24 h in [10] was 84 min. Further, the half-life in data set [11] is 120 min.

`CN(c1ccc(C#N)c(Cl)c1)[C@H]1CC[C@H](NC(=O)c2ccc(N3CCN(C4CN(c5ccc6c(c5)C(=O)N(C5CCC(=O)NC5=O)C6=O)C4)CC3)cc2)CC1` (stereo not given in full): the half-life in data set [12] is 414 min; in data set [11], 330 min. The compound also registered a Cmax in [2] of 57 ng/mL. In data set [3], this compound yielded a bioavailability of 13%. The compound also showed a clearance in data set [4] of 12.5 mL/min/kg. The AUC(0-t) at 24 h in [5] came to 1300 ng·h/mL; in data set [8], 535 ng·h/mL. In addition, in data set [9], the Vd turned out to be 5.3 L/kg. The midpoint of inhibition at Androgen receptor, the IC50, lay at 15 nM.

As for `CNC(=O)c1ccc(N2C(=S)N(c3ccc(C#N)c(C(F)(F)F)c3)C(=O)C2(C)C)cc1F` [ENZALUTAMIDE], the half-inhibitory concentration (IC50) in the data set on LNCaP was found to be 213 nM.

With `N#Cc1ccc(O[C@H]2CC[C@H](NC(=O)c3ccc(N4CCC(CN5CCN(c6cc7c(cc6F)C(=O)N(C6CCC(=O)NC6=O)C7=O)CC5)CC4)nn3)CC2)cc1Cl` (stereo not given in full) [BAVDEGALUTAMIDE], the results for the IC50 in the data set on LNCaP and in the data set with VCaP [6] were 18.5 nM and 16.2 nM, respectively. Moreover, the half-life in data set [12] was 1630 min; in data set [11], 720 min. In addition, the highest level in data set [2] (Cmax) was 280 ng/mL. Also, the bioavailability in data set [3] was 52%. Also, in data set [4], the clearance was 6 mL/min/kg. Besides, the AUC(0-t) at 24 h is 2270 ng·h/mL in data set [5] and 3600 ng·h/mL in [8]. The Vd in data set [9] amounted to 4.6 L/kg. Also, the inhibition in vivo at 10 mg/kg in the data set on VCaP [13] came out at 47%.

On to `C[C@H]1CC2(CCN(c3ccc(C(=O)N4CCN(C)CC4)cc3)CC2)CN1c1ccc(C#N)c(Cl)c1`, for which the result in the data set with VCaP [14], with VCaP [15] and in the data set with VCaP [16] was inactive. Besides, the DC50 result in [7] is “Not Active”.

For the compound `C[C@H]1CC2(CCN(c3cnc(C(=O)N4CCC(CN5Cc6cc7c(cc6C5)C(=O)N(C5CCC(=O)NC5=O)C7=O)CC4)cn3)CC2)CN1c1ccc(C#N)c(Cl)c1` (stereo not given in full), the half-life in data set [12] was 72 min; in [11], 84 min. Further, the Cmax in [2] amounted to 55 ng/mL. For the same compound, the bioavailability in data set [3] was 15%. For the same compound, in data set [4], the clearance is 33.3 mL/min/kg. The AUC(0-t) at 24 h came out at 495 ng·h/mL in data set [5] and 235 ng·h/mL in [8]. Further, the midpoint of inhibition in the data set on VCaP [6], the IC50, lay at 10 nM. Moreover, the Vd in data set [9] was 2.3 L/kg.
